Test results as given in ChEMBL document CHEMBL5241111, “Non-steroidal anti-inflammatory drugs: recent advances in the use of synthetic COX-2 inhibitors” (RSC Med Chem, 2022).
In brackets after ≈: the same amount, converted by molar mass. Each block holds one compound with its values, some of them ahead of it.

Experiments:
Homo sapiens [1] = species: Homo sapiens; experiment: Inhibition of ROS production in human blood; format: functional
Rattus norvegicus [2] = experiment: Antiinflammatory activity against rat model of carrageenan induced paw edema assessed as inhibition of edema at 50 mg/kg, po pretreated for 1 hr followed by carrageenan addition and measured after 1 to 6 hrs relative to control; format: functional; conditions: time 2-7 hrs
Rattus norvegicus [3] = experiment: Antiinflammatory activity against rat model of carrageenan induced paw edema assessed as reduction in PGE2 level in plasma at 50 mg/kg, po pretreated for 1 hr followed by carrageenan addition and measured after 6 hrs by ELISA relative to control; format: functional; conditions: time 7 hrs
Albumin = Albumin (Bos taurus, UniProt P02769); experiment: Inhibition of bovine serum albumin denaturation incubated for 15 mins
Chain of Albumin (P02769 whole entry): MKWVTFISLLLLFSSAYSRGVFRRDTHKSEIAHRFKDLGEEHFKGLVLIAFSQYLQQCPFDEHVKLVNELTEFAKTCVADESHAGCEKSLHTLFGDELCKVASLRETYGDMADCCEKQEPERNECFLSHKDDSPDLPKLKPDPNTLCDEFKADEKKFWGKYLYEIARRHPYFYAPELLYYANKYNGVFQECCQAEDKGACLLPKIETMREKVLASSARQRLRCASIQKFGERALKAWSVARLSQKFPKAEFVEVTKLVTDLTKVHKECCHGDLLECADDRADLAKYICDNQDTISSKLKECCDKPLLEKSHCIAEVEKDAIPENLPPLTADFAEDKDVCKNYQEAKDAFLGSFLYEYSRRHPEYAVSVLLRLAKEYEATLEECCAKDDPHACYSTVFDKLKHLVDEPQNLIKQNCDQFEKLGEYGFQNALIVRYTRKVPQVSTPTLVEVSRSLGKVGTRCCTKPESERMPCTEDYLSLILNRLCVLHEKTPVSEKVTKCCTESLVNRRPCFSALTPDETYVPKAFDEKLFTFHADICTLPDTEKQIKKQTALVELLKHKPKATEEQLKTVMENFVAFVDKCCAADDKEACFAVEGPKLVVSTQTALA

MCF7 = experiment: cells; conditions: Homo sapiens, MCF7, 48 h
[4] = biological target: T1, Prostaglandin G/H synthase 2 (Homo sapiens, UniProt P35354); experiment: Inhibition of human recombinant COX-2 by enzyme immunoassay
T1 sequence (P35354 whole entry): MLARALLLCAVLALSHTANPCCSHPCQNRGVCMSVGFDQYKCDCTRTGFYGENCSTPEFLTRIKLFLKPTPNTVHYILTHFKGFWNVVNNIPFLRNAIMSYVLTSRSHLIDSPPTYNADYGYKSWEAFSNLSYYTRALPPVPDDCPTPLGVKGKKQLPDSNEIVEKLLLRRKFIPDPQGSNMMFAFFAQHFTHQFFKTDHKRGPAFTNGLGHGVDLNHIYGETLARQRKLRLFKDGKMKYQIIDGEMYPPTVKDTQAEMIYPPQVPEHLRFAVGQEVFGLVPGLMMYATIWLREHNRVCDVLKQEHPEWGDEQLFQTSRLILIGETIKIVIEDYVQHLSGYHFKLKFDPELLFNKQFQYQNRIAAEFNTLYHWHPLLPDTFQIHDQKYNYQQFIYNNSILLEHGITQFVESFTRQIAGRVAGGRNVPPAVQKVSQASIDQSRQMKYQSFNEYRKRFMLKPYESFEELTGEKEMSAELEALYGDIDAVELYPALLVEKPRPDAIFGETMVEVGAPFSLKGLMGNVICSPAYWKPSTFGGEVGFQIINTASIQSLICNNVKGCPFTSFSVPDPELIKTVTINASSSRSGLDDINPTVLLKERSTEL

Rattus norvegicus [5] = experiment: Antiinflammatory activity against rat model of carrageenan induced paw edema assessed as inhibition of edema measured after 1 to 6 hrs relative to control; format: functional; conditions: time 1-6 hrs
A549 = experiment: cells; conditions: Homo sapiens, A549, 48 h
HCT-116 = experiment: cells; conditions: Homo sapiens, HCT-116, 48 h
Homo sapiens [6] = species: Homo sapiens; experiment: Potency index, ratio of ibuprofen IC50 to test compound IC50 for inhibition of ROS production in human blood; format: functional
Homo sapiens [7] = species: Homo sapiens; experiment: Inhibition of ROS production in human blood at 25 ug/ml relative to control; format: functional
[8] = biological target: T1, Prostaglandin G/H synthase 2; experiment: Inhibition of COX-2 (unknown origin) by colorimetric assay
[9] = biological target: T2, Prostaglandin G/H synthase 2 (Homo sapiens) (UniProt P35354); experiment: Potency index, ratio of celecoxib IC50 to test compound IC50 for inhibition of COX-2 (unknown origin) by colorimetric assay
T2 sequence (whole entry): T1 sequence (P35354 whole entry)

Rattus norvegicus [10] = experiment: Antiinflammatory activity against rat model of carrageenan induced paw edema assessed as reduction in IL-6 level in plasma at 50 mg/kg, po pretreated for 1 hr followed by carrageenan addition and measured after 6 hrs by ELISA relative to control; format: functional; conditions: time 7 hrs
Rattus norvegicus [11] = experiment: Antiinflammatory activity against rat model of carrageenan induced paw edema assessed as reduction in TNFalpha level in plasma at 50 mg/kg, po pretreated for 1 hr followed by carrageenan addition and measured after 6 hrs by ELISA relative to control; format: functional; conditions: time 7 hrs

Structure (SMILES): CC(C)Cc1ccc(C(C)C(=O)O)cc1 (stereo not drawn) [IBUPROFEN]
IC50 (Homo sapiens [1]): 11.2 µg/mL (≈ 54.3 µM)

Structure (SMILES): COc1cc(-c2cc(-c3cccc(-n4cnnn4)c3)no2)cc(OC)c1OC
inhibition in vivo at 50 mg/kg (Rattus norvegicus [2]): 29.2%
inhibition in vivo at 50 mg/kg (Rattus norvegicus [3]): 81%

Structure (SMILES): O=c1/c(=C/c2cccc(O)c2)sc2nc(C34CC5CC(CC(C5)C3)C4)nn12
IC50 [4]: 50 µM

Structure (SMILES): COc1ccc(-c2cc(-c3ccc(F)cc3)n(-c3ccc(S(N)(=O)=O)cc3)n2)cc1OC
inhibition (INH) (Rattus norvegicus [5]): 42.1%

Structure (SMILES): CCOc1ccc2nc(NC(=O)CSc3nnc(Cc4c[nH]c5ccccc45)o3)sc2c1
IC50 (A549): 6.43 µM
IC50 (HCT-116): 6.43 µM

Structure (SMILES): CCCC(=O)Nc1ccc(OC(=O)c2ccncc2)cc1
inhibition in vivo at 25 µg/mL (Homo sapiens [7]): 85.4%
IC50 (Homo sapiens [1]): 3.7 µg/mL (≈ 13 µM)

Structure (SMILES): CCCCNc1cc(-c2n[nH]c(=S)n2-c2ccc(Br)cc2)cc(S(N)(=O)=O)c1Oc1ccccc1
IC50 [8]: 0.17 µM
Ratio IC50 [9]: 12

Structure (SMILES): COc1cc(C2CC(c3cccc(-n4cnnn4)c3)=NN2C(C)=O)cc(OC)c1OC (stereo not drawn)
inhibition in vivo at 50 mg/kg (Rattus norvegicus [2]): 29.2%
inhibition in vivo at 50 mg/kg (Rattus norvegicus [3]): 81%
inhibition in vivo at 50 mg/kg (Rattus norvegicus [10]): 61.6%
inhibition in vivo at 50 mg/kg (Rattus norvegicus [11]): 55.4%

Now from value to compound, other results behind:

IC50 (Albumin): 43.5 µM
Structure (SMILES): COc1ccc(C2=NN(C(N)=O)C(c3cn(-c4ccccc4)nc3-c3ccccc3)C2)cc1 (stereo not drawn)

IC50 (MCF7): 4.37 µM
Structure (SMILES): CCOP(=O)(OCC)C(NC(=O)c1cc(-c2cccc3ccccc23)n(-c2ccc(F)cc2)n1)c1ccccc1 (stereo not drawn)

IC50 [4]: 50 µM
Structure (SMILES): COc1cc(/C=c2\sc3nc(C45CC6CC(CC(C6)C4)C5)nn3c2=O)ccc1O

IC50 (Homo sapiens [1]): 1.42 µg/mL (≈ 6.63 µM)
Structure (SMILES): Nc1cccc(OC(=O)c2ccncc2)c1
Ratio IC50 (Homo sapiens [6]): 8
inhibition in vivo at 25 µg/mL (Homo sapiens [7]): 95.9%

IC50 [8]: 0.32 µM
Ratio IC50 [9]: 12
Structure (SMILES): CCCCNc1cc(C(=O)n2nc(C)cc2-c2ccccc2)cc(S(N)(=O)=O)c1Oc1ccccc1
